From patent US20160297763A1, “Heteroaryl hydroxamic acid derivatives and their use in the treatment, amelioration or prevention of a viral disease” (priority 2011, published 2016)

How the values were obtained:
[1] = system: influenza A virus A/Aichi/2/68 (H3N2); experiment: Cytopathic effect (CPE) assay H3N2; assay type: cell-based, influenza A virus (H3N2) on MDCK cells; settings: Influenza A virus
Method in brief: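 MDCK cells infected with A/Aichi/2/68 (H3N2) at MOI 0.05 in trypsin-containing medium, compound (generally 25 μM and 250 μM, 1% DMSO) added together with virus; 48 hrs at 37° C. Viability by ATP luminescence; % CPE reduction = infected-treated minus infected-untreated RLU, normalized to uninfected-treated viability.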

PA-Nter = PA-Nter (Influenza A virus, UniProt P31343); experiment: Biacore PA-Nter binding; settings: activity conc 50
[2] = molecular target: PB2 cap binding domain (CBD) (Influenza A virus, UniProt Q9Q0V1); experiment: biochemical; design: species or system avian H5N1 influenza virus
Sequence of PB2 cap binding domain (CBD) (Q9Q0V1 318-483 limits assumed): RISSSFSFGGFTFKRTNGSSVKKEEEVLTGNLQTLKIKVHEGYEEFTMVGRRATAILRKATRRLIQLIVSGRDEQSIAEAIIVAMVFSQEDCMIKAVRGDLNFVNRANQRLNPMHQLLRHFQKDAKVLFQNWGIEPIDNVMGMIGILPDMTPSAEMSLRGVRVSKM

## Cc1c(-c2ccccc2)sc2nc(N)[nH]c(=O)c12 [SAV-7475]
[1]; H3N2, activity conc 5 (μM per method), read-out: CPE H3N2 reduction (%)
  inhibition at 5 µM: 8.9%
[1]; H3N2, read-out: CPE H3N2 IC50
  IC50: 21 µM
PA-Nter
  Biacore PA-Nter Binding (RU): 13.16 RU
[2]
  Kd: 4.6 µM

## Cc1c(-c2ccc(F)cc2F)sc2nc(N)[nH]c(=O)c12 [SAV-7610]
ALPHA screen
  EC50: 0.62 µM
[1]; H3N2, activity conc 2 (μM per method), read-out: CPE H3N2 reduction (%)
  inhibition at 2 µM: -1.6%
[2]
  Kd: 3.8 µM
